Values joined by “and” are separate entries in the source; they are usually repeats but may differ in a detail not shown here. Equal entries are not always repeated.
System: Salmonella typhimurium TA 100
Test: Back mutation test, TA100
Type: cell-based
Settings: for number of back mutation, single plates: Phosphate
Method: A test was carried out in accordance with the “Standard of Mutagenicity Tests Using Microorganisms” (Ministry of Labor Notification No. 77, 1988) (partial revision by Ministry of Labor Notification No. 67, 1997) and “Regarding the Tests Concerning Novel Chemical Substances and the like” (dated Nov. 21, 2003: Yaku-Shoku-Hatsu No. 1121002, 2003.11.13 Sei-Kyoku, No. 2, Kan-Ho-Ki-Hatsu No. 031121002). To 0.1 ml of a solution prepared by dissolving 5% (w/v) of 5-aminolevulinic acid phosphate in distilled water (Wako Pure Chemical Industries), 0.5 ml of 0.1 M sodium-phosphate buffer (pH 7.4) (0.5 ml S9 mix in the case of metabolism activation test) was added, and 0.1 ml of each test strain suspension (5 strains of histidine-less Salmonella typhimurium TA 100, TA 98, TA 1535 and TA 1537 and tryptophan-less Escherichia coli WP2 uvrA were used (Japan Bioassay Research Center)) was further added thereto, followed by pre-incubation at 37° C. for 20 minutes while shaking. After completion of the culturing, 2.0 ml of top agar kept at 45° C. in advance was added thereto and layered on a minimum glucose agar plate medium. In this case, 2 plates were arranged for each dosage. However, 3 plates were arranged for a solvent control (negative control). […] In the measurement, an inner area of about 80 mm in diameter of a plate of 86 mm in diameter (84 mm in inner diameter) was measured using an automatic colony analyzer (CA-11: manufactured by System Science), and calculated by carrying out area correction and counting loss correction using a personal computer. However, since reliability of the automatic colony analyzer is reduced when the number of colonies is 1,500 or more, 5 points in the plate were manually measured under the stereoscopic microscope to carry out area correction of the average value. A dosage setting test was carried out on 7 dosages diluted at a common ratio of 4, using a dosage of 5,000 μg/plate as the maximum which is the maximum dosage defined by the guideline. […] Growth inhibition of the strains by this substance to be tested was not found. […] Thus, this test was carried out by setting 5 dosages diluted at a common ratio of 2, using a dosage of 5,000 μg/plate as the maximum which is the maximum dosage defined by the guideline.

## NCC(=O)CCC(=O)O.O=P(O)(O)O [5-aminolevulinic acid phosphate, 5-aminolevulinic Acid Phosphate]
S9 Mix(+), 313 μg/plate
  number of back mutation, mean (in parentheses): (134) colonies/plate
  number of back mutation, single plates: 146 colonies/plate and 122 colonies/plate
S9 Mix(+), 625 μg/plate
  number of back mutation, mean (in parentheses): (102) colonies/plate
  number of back mutation, single plates: 107 colonies/plate and 96 colonies/plate
S9 Mix(+), 1250 μg/plate
  number of back mutation, mean (in parentheses): (129) colonies/plate
  number of back mutation, single plates: 128 colonies/plate and 129 colonies/plate
S9 Mix(+), 2500 μg/plate
  number of back mutation, mean (in parentheses): (106) colonies/plate
  number of back mutation, single plates: 109 colonies/plate and 102 colonies/plate
S9 Mix(+), 5000 μg/plate
  number of back mutation, mean (in parentheses): (133) colonies/plate
  number of back mutation, single plates: 130 colonies/plate and 136 colonies/plate
S9 Mix(−), 313 μg/plate
  number of back mutation, mean (in parentheses): (85) colonies/plate
  number of back mutation, single plates: 87 colonies/plate and 82 colonies/plate
S9 Mix(−), 625 μg/plate
  number of back mutation, mean (in parentheses): (90) colonies/plate
  number of back mutation, single plates: 84 colonies/plate and 95 colonies/plate
S9 Mix(−), 1250 μg/plate
  number of back mutation, mean (in parentheses): (99) colonies/plate
  number of back mutation, single plates: 84 colonies/plate and 114 colonies/plate
S9 Mix(−), 2500 μg/plate
  number of back mutation, mean (in parentheses): (79) colonies/plate
  number of back mutation, single plates: 76 colonies/plate and 82 colonies/plate
S9 Mix(−), 5000 μg/plate
  number of back mutation, mean (in parentheses): (107) colonies/plate
  number of back mutation, single plates: 115 colonies/plate and 99 colonies/plate

From patent US8471061B2 (priority 2004, dated 2013)
